Laboratory results taken from patent US20150099667A1, “METHODS FOR THE ACTIVATION OF SILENT GENES IN A MICROORGANISM” (priority 2012, published 2015).
Read-outs that look alike come from different tables or passages of the source.

Assays:
Experiment in all cases: Biological screening of extracts of induced Actinobacteria, BacTiter-Glo assay
Assay type in all cases: cell-based
[1] = system: Pseudomonas aeruginosa ATCC 27853
[2] = system: Staphylococcus aureus ATCC 33592
[3] = system: Candida albicans ATCC 753; conditions: FIG. 10
[4] = system: Escherichia coli ATCC 35218; conditions: FIG. 4
[5] = chemical inducer 3.3 μg/ml in medium 5294

[Cl-].[Cl-].[Co+2] [CoCl2]
extracts showing >50% activity against Pseudomonas aeruginosa ATCC 27853, share by culture condition [1]: 3.8%
extracts that showed >50% activity against Staphylococcus aureus ATCC 33592, share by culture condition [2]: 3.6%

[Cl-].[Cl-].[Sr+2] [SrCl2]
extracts showing >50% activity against Pseudomonas aeruginosa ATCC 27853, share by culture condition ([1]; chemical inducer 3.3 μg/ml in medium 5294, FIG. 6): 3.8%
extracts that showed >50% activity against Staphylococcus aureus ATCC 33592, share by culture condition ([2]; chemical inducer 3.3 μg/ml in medium 5294, FIG. 8): 3.5%
extracts that showed >50% activity against Candida albicans ATCC 753, share by culture condition ([3]; chemical inducer 1.6 μg/ml in medium 5294): 3.5%

O=[Se]([O-])O.[Na+] [NaHSeO3]
extracts that showed >50% activity against Escherichia coli ATCC 35218, share by culture condition [4, 5]: 3.3%

[Cl][Ni][Cl] [NiCl2]
extracts that showed >50% activity against Candida albicans ATCC 753, share by culture condition [3, 5]: 3.7%

C[S+](C)[O-] [DMSO]
extracts that showed >50% activity against Escherichia coli ATCC 35218, share by culture condition ([4]; chemical inducer 50 μl/ml in medium 5294): 3.6%
extracts that showed >50% activity against Candida albicans ATCC 753, share by culture condition ([3]; chemical inducer 10 μl/ml in medium 5294): 3.5%
